A word on the IC50: it is the midpoint of a concentration-inhibition curve. A lower IC50 goes with greater potency.

Each structure is given as a SMILES string.

Consider one compound from paper PMC6433957, “Phenylpyrrole fungicides act on triosephosphate isomerase to induce methylglyoxal stress and alter hybrid histidine kinase activity” (Scientific Reports, 2019).

The target in the assay is T1, triosephosphate isomerase (TPI) (Saccharomyces cerevisiae, UniProt P00942).
T1 construct: gene TPI1; commercial Triosephosphate isomerase (from S. cerevisiae, Sigma)
T1 sequence (P00942 2-248): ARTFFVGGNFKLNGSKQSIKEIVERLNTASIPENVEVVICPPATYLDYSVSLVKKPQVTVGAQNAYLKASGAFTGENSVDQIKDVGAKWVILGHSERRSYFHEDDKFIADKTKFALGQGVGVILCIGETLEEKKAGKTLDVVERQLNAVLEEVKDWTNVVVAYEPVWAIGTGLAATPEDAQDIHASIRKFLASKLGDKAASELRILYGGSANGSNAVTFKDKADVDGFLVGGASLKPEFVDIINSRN
Kind of assay: coupled alpha-glycerophosphate dehydrogenase/NADH assay (A340) with purified TPI; also in vitro methylglyoxal release by TPI (diaminobenzene adduct). Format: biochemical.

`N#Cc1c[nH]cc1-c1cccc2c1OC(F)(F)O2` [fludioxonil] had an IC50 of around 403 µM.
